Earlier results on one molecule are cited in patent US20250000865A1, “COMPOUND FOR REDUCING URIC ACID LEVELS” (NEWSOARA BIOPHARMA CO., LTD., priority 2021, published 2025).

The conditions of the series: cited from earlier work.

As to `CCc1oc2ccccc2c1C(=O)c1cc(Br)c(O)c(Br)c1` [benbromarone, Benzbromarone], the “sUA target level reached” value (after long-term treatment) is given as below 6 mg/dL. For the same molecule, where the note is “in vivo”, the side effects result was “hepatotoxicity and acute liver failure”.
